Laboratory results reported in US20230148184A1, “COMPOUNDS AND METHODS FOR MODULATING SPLICING” (REMIX THERAPEUTICS INC., priority 2020, published 2023).

Experiments:
Format in all cases: cell-based
HTT mRNA = experiment: RT-qPCR splicing assay for HTT mRNA isoforms (canonical junction CJ and alternative junction AJ); conditions: A673 or K562 cell line, 24 hours compound treatment; for IC50: decrease in CJ mRNA; for AC50: increase in AJ mRNA
Method in brief: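 A673 (DMEM, 10% FBS) or K562 (IMDM, 10% FBS) cells were treated 24 h at 37 °C with an 11-point 3-fold series, top dose 10 uM, DMSO ≤0.25%. In lysates, HTT CJ and AJ isoforms were quantified by one-step RT-qPCR and normalized to PPIA (A673) or GAPDH/GUSB (K562), at least in duplicate.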

HTT CJ mRNA = experiment: Gene panel canonical junction qPCR assay, HTT; conditions: decrease in CJ mRNA levels, RT-qPCR
Method in brief: (§1)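 A673 or K562 cells treated 24 h at 37 °C with 11-point 3-fold dilutions (top 10 uM final, DMSO ≤0.25%); lysates analysed by one-step RT-qPCR for canonical-junction mRNA. ΔCt vs GAPDH, GUSB or PPIA housekeeper, normalised to DMSO (ΔΔCt), converted to RQ via 2^(−ΔΔCt) and percentage response.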

SMN2 CJ mRNA = experiment: Gene panel canonical junction qPCR assay, SMN2; conditions: decrease in CJ mRNA levels, RT-qPCR
Method in brief: as §1

Target C CJ mRNA = experiment: Gene panel canonical junction qPCR assay, Target C; conditions: decrease in CJ mRNA levels, RT-qPCR
Method in brief: as §1

Compound | IC50 (HTT mRNA) | AC50 (HTT mRNA) | IC50 (HTT CJ mRNA) | IC50 (SMN2 CJ mRNA) | IC50 (Target C CJ mRNA)
CN(c1cnc2c(n1)OCc1cc(-c3cn[nH]c3)ccc1-2)C1CC(C)(C)NC(C)(C)C1 [Compound 142, N,2,2,6,6-pentamethyl-N-[8-(1H-pyrazol-4-yl)-6H-isochromeno[3,4-b]pyrazin-3-yl]piperidin-4-amine] | 100 to 1000 nM | 100 to 1000 nM | 100 to 1000 nM | 100 to 1000 nM | 1000 to 10000 nM
CC1(C)CC(Nc2ccc3c(n2)OCc2cc(-n4cccn4)ccc2-3)CC(C)(C)N1 [Compound 165] | 100 to 1000 nM | 100 to 1000 nM | 100 to 1000 nM | < 100 nM | 100 to 1000 nM
c1cnn(-c2ccc3c(c2)COc2nc(O[C@@H]4C[C@H]5CC[C@@H](C4)N5)ccc2-3)c1 [Compound 188] | 100 to 1000 nM | 100 to 1000 nM | 100 to 1000 nM | 100 to 1000 nM | 1000 to 10000 nM
CN(c1ccc2c(n1)OCc1cc(-n3ccnc3)ccc1-2)[C@@H]1C[C@H]2CC[C@@H](C1)N2 [Compound 163] | < 100 nM | < 100 nM | < 100 nM | < 100 nM | 100 to 1000 nM
CN1C[C@@H]2CN(c3ccc4c(n3)OCc3cc(-n5cccn5)ccc3-4)C[C@@H]2C1 [Compound 170] | 1000 to 10000 nM | 1000 to 10000 nM | 1000 to 10000 nM | 1000 to 10000 nM | > 10000 nM
CN(c1ccc2c(n1)OCc1cc(-n3ccnn3)ccc1-2)[C@@H]1C[C@H]2CC[C@@H](C1)N2 [Compound 152] | 100 to 1000 nM | < 100 nM | 100 to 1000 nM | < 100 nM | 100 to 1000 nM
Cc1[nH]ncc1-c1ccc2c(c1)COc1nc(N(C)[C@@H]3C[C@H]4CC[C@@H](C3)N4)ccc1-2 [Compound 154] | 100 to 1000 nM | 100 to 1000 nM | 100 to 1000 nM | 100 to 1000 nM | 100 to 1000 nM
c1cnn(-c2ccc3c(c2)COc2nc(N4CCC5(CCCNC5)C4)ccc2-3)c1 (centres unmarked) [Compound 183] | > 10000 nM | > 10000 nM | > 10000 nM | 100 to 1000 nM | > 10000 nM
c1cnn(-c2ccc3c(c2)COc2nc(N4CCNCC4)ccc2-3)c1 [Compound 173] | > 10000 nM | > 10000 nM | > 10000 nM | 1000 to 10000 nM | > 10000 nM
c1cnn(-c2ccc3c(c2)COc2nc(N4CC5(CCNCC5)C4)ccc2-3)c1 [Compound 167] | > 10000 nM | > 10000 nM | > 10000 nM | > 10000 nM | > 10000 nM
c1cnn(-c2ccc3c(c2)COc2nc(S[C@@H]4C[C@H]5CC[C@@H](C4)N5)ccc2-3)c1 [Compound 193] | > 10000 nM | > 10000 nM | 1000 to 10000 nM | > 10000 nM | > 10000 nM
c1cnn(-c2ccc3c(c2)COc2nc(N4CCC5(CC4)CNC5)ccc2-3)c1 [Compound 169] | 100 to 1000 nM | 100 to 1000 nM | 100 to 1000 nM | 100 to 1000 nM | 100 to 1000 nM
c1cnn(-c2ccc3c(c2)COc2nc(N[C@@H]4C[C@H]5CC[C@@H](C4)N5)ccc2-3)c1 [Compound 179] | 100 to 1000 nM | 100 to 1000 nM | 100 to 1000 nM | 100 to 1000 nM | 100 to 1000 nM
CN1C[C@@H]2[C@H](C1)[C@H]2N(C)c1ccc2c(n1)OCc1cc(-n3cccn3)ccc1-2 [Compound 196] | > 10000 nM | > 10000 nM | > 10000 nM | > 10000 nM | > 10000 nM
c1cnn(-c2ccc3c(c2)COc2nc(N4CC5(CCCNC5)C4)ccc2-3)c1 [Compound 168] | > 10000 nM | > 10000 nM | > 10000 nM | > 10000 nM | > 10000 nM
CN(c1ccc2c(n1)OCc1cc(-c3ccc(=O)[nH]c3)ccc1-2)[C@@H]1C[C@H]2CC[C@@H](C1)N2 [Compound 157] | 1000 to 10000 nM | 1000 to 10000 nM | 1000 to 10000 nM | 100 to 1000 nM | 1000 to 10000 nM
c1cnn(-c2ccc3c(c2)COc2nc(N4C[C@H]5CNC[C@H]5C4)ccc2-3)c1 [Compound 185] | > 10000 nM | > 10000 nM | > 10000 nM | 1000 to 10000 nM | > 10000 nM
CN(c1ccc2c(n1)OCc1cc(-n3cccn3)ccc1-2)[C@H]1C[C@]2(C)CC[C@](C)(C1)N2 [Compound 180] | < 100 nM | < 100 nM | < 100 nM | < 100 nM | 100 to 1000 nM
c1cnn(-c2ccc3c(c2)COc2nc(N4CCC5(CCNCC5)C4)ccc2-3)c1 [Compound 182] | > 10000 nM | > 10000 nM | > 10000 nM | > 10000 nM | > 10000 nM
CC1(C)CC(Oc2ccc3c(n2)OCc2cc(-n4cccn4)ccc2-3)CC(C)(C)N1 [Compound 171] | 1000 to 10000 nM | 1000 to 10000 nM | 1000 to 10000 nM | 100 to 1000 nM | 1000 to 10000 nM
CN(c1ccc2c(n1)OCc1cc(-c3cn[nH]c3)ccc1-2)C1CCNCC1 [Compound 116, N-Methyl-N-[8-(1H-pyrazol-4-yl)-6H-isochromeno[3,4-b]pyridin-3-yl]piperidin-4-amine] | 100 to 1000 nM | 1000 to 10000 nM | 100 to 1000 nM | 100 to 1000 nM | 100 to 1000 nM
CN(c1ccc2c(n1)OCc1cc(-n3cccn3)ccc1-2)[C@H]1[C@@H]2CNC[C@@H]21 [Compound 194] | 1000 to 10000 nM | 1000 to 10000 nM | > 10000 nM | > 10000 nM | > 10000 nM
c1cnn(-c2ccc3c(c2)OCCc2cc(N[C@@H]4C[C@H]5CC[C@@H](C4)N5)ccc2-3)c1 [Compound 139, (1R,3S,5S)—N-[5-(pyrazol-1-yl)-8-oxatricyclo [9.4.0.0^[2,7]]pentadeca-1(11),2(7),3,5,12,14-hexaen-13-yl]-8-azabicyclo [3.2.1] octan-3-amine] | > 10000 nM | > 10000 nM | > 10000 nM | > 10000 nM | > 10000 nM
COc1cc(-c2ccc3c(c2)COc2nc(N(C)[C@@H]4C[C@H]5CC[C@@H](C4)N5)ccc2-3)ccn1 [Compound 156] | < 100 nM | < 100 nM | < 100 nM | 100 to 1000 nM | 100 to 1000 nM
CN(c1ccc2c(n1)OCc1cc(-c3ccc(=O)n(C)c3)ccc1-2)[C@@H]1C[C@H]2CC[C@@H](C1)N2 [Compound 158] | 100 to 1000 nM | 100 to 1000 nM | 100 to 1000 nM | 100 to 1000 nM | 100 to 1000 nM
